Measured values reported in paper PMC12775124, “CUL4A-DDB1-DCAF10 is an N-recognin for N-terminally acetylated Src kinases” (Nature Communications, 2026).
Like-named read-outs stand apart in the source and are kept apart here.

Tests used:
DCAF10 = assay: Peptide pull-down with quantitative MS, HeLa lysate, DCAF10; assay type: binding, human (HeLa); details: for DCAF10 binding of Nt-mutant peptides (in words): n = 3 replicates; for DCAF10 binding of swap peptide vs its WT (in words): direct comparisons Ac-Lyn vs Ac-Lyn^swap and Ac-THOC7 vs Ac-THOC7^swap
Description: Beads presenting 10-residue synthetic Nt-peptides of proteins of interest in their free (Nt-free) or modified (e.g., Nt-acetylated) versions were incubated with lysates from HeLa cells, followed by MS-based quantification of retained binders (Fig. 1a).
Biotinylated 10-mer Nt-peptides (Nt-free, Nt-acetylated, and, where indicated, Nt-myristoylated; sequences in Supplementary Table 1) were synthesized with a C-terminal Lys3 spacer and biotin, immobilized on magnetic streptavidin beads, and incubated with HeLa or mouse liver lysates. After standardized washes, bound proteins were on-bead reduced/alkylated, digested with LysC/trypsin, desalted, and analysed by LC-MS in DIA mode (Orbitrap Exploris 480) as described previously[24]. Variants included endogenous Nt-sequences, swap and mutant (Ala-Ala-Ala or Nt-amino acids) peptides, and pairwise comparisons of conditions of interest.
All MS experiments were performed as independent biological triplicates. Relative protein quantification was carried out using the label-free algorithm integrated in DIA-NN[53], and statistical testing was performed in Perseus using a two-sided Student’s t test with permutation-based multiple-testing-adjusted p-values[53],[54], as specified in the figure legends. […] Volcano blots were visualized with RStudio (version 2023.06.0). […] Cell experiments were performed as biological replicates, and binding assays as independent assays. […] Data are presented as mean ± s.d. Fold changes are reported as the ratio of the normalized value for the condition of interest to the normalized control value, with mean ± s.d. computed across biological replicates.

human NatA = target: T1, human NatA (Homo sapiens, UniProt P41227+Q9BXJ9); assay: In vitro Nt-acetylation assay (NatA, CPM fluorescence); assay type: biochemical
T1 construct: Human NatA (hNatA) full-length (FL) was cloned; made in house; host or cells: Tnao38 insect cells (baculovirus, pFL vector)
T1 sequence (P41227 1-235): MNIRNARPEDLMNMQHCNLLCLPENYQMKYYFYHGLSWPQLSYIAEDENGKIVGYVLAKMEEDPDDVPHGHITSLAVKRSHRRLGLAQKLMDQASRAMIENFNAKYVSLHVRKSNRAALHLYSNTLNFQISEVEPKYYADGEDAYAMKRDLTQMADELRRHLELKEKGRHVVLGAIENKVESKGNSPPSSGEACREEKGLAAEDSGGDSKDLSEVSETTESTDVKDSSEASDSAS
T1 sequence (Q9BXJ9 1-866 partner): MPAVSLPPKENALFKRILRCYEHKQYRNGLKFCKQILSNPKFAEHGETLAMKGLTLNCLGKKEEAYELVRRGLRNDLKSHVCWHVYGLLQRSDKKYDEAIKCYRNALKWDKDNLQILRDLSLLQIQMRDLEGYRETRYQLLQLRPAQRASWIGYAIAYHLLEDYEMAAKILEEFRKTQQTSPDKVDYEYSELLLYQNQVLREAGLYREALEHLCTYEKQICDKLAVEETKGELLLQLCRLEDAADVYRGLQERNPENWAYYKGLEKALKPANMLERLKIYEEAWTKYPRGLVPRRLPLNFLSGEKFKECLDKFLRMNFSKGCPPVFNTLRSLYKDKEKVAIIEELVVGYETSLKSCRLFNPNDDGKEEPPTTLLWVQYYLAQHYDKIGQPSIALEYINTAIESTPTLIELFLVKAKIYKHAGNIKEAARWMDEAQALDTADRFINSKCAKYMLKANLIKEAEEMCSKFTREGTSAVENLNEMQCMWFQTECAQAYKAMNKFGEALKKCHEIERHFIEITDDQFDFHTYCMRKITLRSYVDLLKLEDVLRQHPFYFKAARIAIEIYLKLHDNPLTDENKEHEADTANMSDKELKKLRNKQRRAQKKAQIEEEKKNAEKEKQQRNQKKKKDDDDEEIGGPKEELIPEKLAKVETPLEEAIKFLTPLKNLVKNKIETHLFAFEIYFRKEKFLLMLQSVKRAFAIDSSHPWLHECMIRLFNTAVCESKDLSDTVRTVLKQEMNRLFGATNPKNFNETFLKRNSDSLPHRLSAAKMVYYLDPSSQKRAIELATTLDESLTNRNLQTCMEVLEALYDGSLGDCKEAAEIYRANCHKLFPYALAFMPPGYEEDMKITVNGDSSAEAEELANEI
Description: Gly-starting proteins can be substrates of the Nt-acetyltransferase NatA[3],[21]. Having established direct DCAF10 binding to Ac-Gly N-termini, we next asked whether SFK N-termini are bona fide NatA substrates. We developed an in vitro Nt-acetylation assay comprising purified NatA, acetyl-CoA (Ac-CoA), and the peptide of interest (Fig. 3a, b)[33]. Acetyl-group transfer was assessed using CPM [7-(diethylamino)−3-(4′-maleimidophenyl)−4-methylcoumarin], which reacts specifically with free thiol groups to produce a highly fluorescent product (excitation: 390 nm; emission: 479 nm), allowing detection of CoA production after acetyl-group transfer to the peptide (Supplementary Fig. 4e). We optimized the conditions to determine Michaelis–Menten kinetics for NatA-mediated Nt-acetylation with a target peptide ([…]) previously used for NatA assays and co-crystallization (Supplementary Fig. 4f)[34]. […] Likely, this was due to a Km even higher than that of Src, and implying that the peptide concentrations in the assay might have been insufficient for the reaction to proceed with an appreciable rate. […] Negative controls (COX17 and Ac-Lyn) produced low signals. […] Given the direct association of NatA with SFK N-termini at the ribosomal exit tunnel, however, we surmise that Nt-acetylation of SFKs in cells may proceed despite these unfavorable kinetic parameters.
The assay was performed essentially as described previously. Briefly, peptide substrates (Supplementary Table 1) were incubated with purified human NatA and acetyl-CoA; acetylation was quantified by CPM fluorescence (CoA detection), and Michaelis–Menten parameters were derived from 8-point 1:1 dilution series within the linear range (n = 4 independent enzymatic assays). Full buffer compositions, reagent concentrations, plate format, instrument settings, controls, and fitting procedures are provided in the Supplementary Methods and Tables. […]
301 Cloning, expression, and purification of human NatA
302 Human NatA (hNatA) full-length (FL) was cloned in a pFL vector expressing both
303 genes, NAA15 with a 6× C-term histidine tag (NAA15-6xHIS) and NAA102. The
304 expression was carried out in insect cells (Tnao38) for 72 h infected 1:20 with
305 baculovirus. Washed cell pellets were lysed by sonication in a lysis buffer containing 200
306 mM NaCl, 50 mM HEPES pH 8.0, 20 mM Imidazole, and 2 mM TCEP. The protein
307 purification was performed as a three-step purification, starting with an affinity nickel
308 column, followed by an ion-exchange column with a gradient of 50–300 mM NaCl, and
309 finished with size exclusion chromatography (SEC) using an S200 10/300 column. The
310 main peaks were collected, and the protein was concentrated in the SEC buffer (150 mM
311 NaCl, 50 mM HEPES pH 8.0, 1 mM EDTA). The purified hNatA was flash-frozen in
312 liquid nitrogen and stored at -80°C.
314 In vitro Nt-acetylation assay
315 The method has been described in detail previously2. Briefly, different peptides
316 (Supplementary Table 1) and concentrations (an eight-step, 1:1 dilution series for
317 Michaelis-Menten curves) as indicated were incubated with 20 nM hNatA and 80 µM Ac-
318 CoA in reaction buffer (50 mM HEPES pH 8.0, 0.5 mM EDTA, 0.005% CHAPS) for 60
319 (Src) or 120 min (Lyn), at RT in a 384-well microplate (Corning 4514) (n = 4).
320 Afterwards, the enzymatic reaction was stopped by adding 1:1 DMSO with 10 µM (final
321 concentration 5 µM) of the thiol reactive CPM (7-Diethylamino-3-
322 (4'Maleimidylphenyl)4-Methylcoumarin). After 1 h at RT, the readout was performed
323 with a Tecan Spark® Multimode Microplate Reader (excitation 390 nm, emission 479
324 nm). Background values at 0 µM peptide were subtracted, and control reactions omitting
325 NatA or Ac-CoA were performed. Dilution series of CoA incubated with 5 µM CPM were
326 used to generate a linear equation (y = 10.99*x + 81.06) to calculate acetylation velocities
327 for NatA-mediated peptide acetylation. […]

[1] = 20 nM NatA, 80 µM Ac-CoA, pH 8.0, RT, 60 min, CPM fluorescence 390/479 nm, mean ± s.d., n = 4, read-out: Km

## ACIKSKGKDSKK [Ac-Lyn^G2A, Ac-Ala mutant Nt-peptide of Lyn]
DCAF10; Ac-Ala (Ac-Lyn^G2A) vs Ac-Gly (Ac-Lyn^WT), HeLa lysate
  DCAF10 interaction, fold lower relative to Ac-Gly peptide: 15 fold
DCAF10
  DCAF10 binding of Nt-mutant peptides (in words): only identified in 2 of 3 replicates

## PGLVDSNPAPKK [COX17, Pro-starting peptide from COX17, negative control, reference compound]
Human NatA; original assay, peptide up to 160 μM
  Nt-acetylation by NatA (in words): no detectable acetylation
Human NatA; starting peptide concentration 1 mM
  Nt-acetylation by NatA (in words): low signals

## GCIKSKENKSKK [Ac-Yes, Nt-peptide of Yes, Nt-acetylated]
DCAF10; HeLa lysate, Nt-Ac vs Nt-free peptides
  DCAF10 binding (in words): bound to DCAF10

## GAVKSKEVIRKK [Ac-THOC7^swap, THOC7 peptide carrying Lys5-Ser6-Lys7 of Lyn]
DCAF10; Ac-Lyn^swap vs Ac-THOC7^swap relative to WT comparison
  Reversal of preference after swapping positions 5–7: ~ 133 fold
DCAF10; HeLa lysate
  DCAF10 binding of swap peptide vs its WT (in words): increased binding

## NatA target peptide: target peptide previously used for NatA assays and co-crystallization (SASEAGVRWG) [reference compound]
Human NatA; [1]
  Km: 8.4 ± 1.7 µM

## GSNKSKPKDAKK [Nt-free Src, Nt-peptide of Src, Nt-free]
Human NatA; [1]
  Km: 144 ± 24 µM
Human NatA; conclusion: poor NatA substrates, read-out: Km, summary statement
  Km: > 100 µM
Human NatA; rounded values in Peer Review File, read-out: Km, as given in rebuttal
  Km: 143 µM

## PCIKSKGKDSKK [Lyn^G2P, Nt-free Pro mutant Nt-peptide of Lyn]
DCAF10
  DCAF10 binding of Nt-mutant peptides (in words): failed to bind DCAF10 in all replicates

## GCIAAAGKDSKK [Ac-Lyn^AAA, Ala5-Ala6-Ala7 mutant of Lyn peptide]
DCAF10; HeLa lysate, n = 3
  log₂ difference, Ac-Lyn^WT vs Ac-Lyn^AAA, DCAF10: −0.41

## GSNKSKPKDAKK [Myr-Src, Nt-peptide of Src, N-myristoylated]
DCAF10; HeLa lysate
  DCAF10 binding, Nt-Ac vs Nt-Myr (in words): no detectable DCAF10 binding

## GCITDDGKDSKK [Ac-Lyn^swap, Lyn peptide carrying Thr5-Asp6-Asp7 of THOC7]
DCAF10; HeLa lysate, n = 3
  log₂ difference Ac-Lyn^swap vs Ac-THOC7^swap, DCAF10: −1.23
DCAF10; HeLa lysate
  DCAF10 binding of swap peptide vs its WT (in words): significantly reduced
